Measured values published in ChEMBL document CHEMBL5096179, “Small molecule approaches to treat autoimmune and inflammatory diseases (Part II): Nucleic acid sensing antagonists and inhibitors” (Bioorg Med Chem Lett, 2021).

Assays:
[1] = Cytotoxicity against human THP1-Dual KO-IFNAR2 cells assessed as cell growth inhibition; format: functional, cell-based
Cyclic GMP-AMP synthase [2] = molecular target: T1, Cyclic GMP-AMP synthase (Homo sapiens, UniProt Q8N884); assay: Inhibition of N-terminal 6XHis-SUMO2 fused full length human cGAS (1 to 522 residues) expressed in […] incubated for 20 mins in presence of ATP by luminescence based analysis
IMR-90 = assay: Cytotoxicity against human IMR-90 cells assessed as inhibition of IFN-beta production by MTS assay; format: functional, cell-based
[3] = molecular target: Stimulator of interferon genes protein (Homo sapiens, UniProt Q86WV6); assay: Binding affinity to wild-type human STING CTD (149 to 379 residues) expressed in Escherichia coli BL21 (DE3) assessed as dissociation constant by isothermal titration calorimetry assay
THP-1 [4] = assay: Cytotoxicity against human THP-1 cells assessed as cell growth inhibition measured after 24 hrs by Celltiter-Glo assay; format: functional, cell-based; conditions: THP-1, 24 h
Cyclic GMP-AMP synthase [5] = molecular target: T1, Cyclic GMP-AMP synthase; assay: Antagonist activity at N-terminal 6XHis tagged human cGAS (155 to 522 residues) expressed in Escherichia coli BL21 DE3 Rosetta 2 in presence of ATP by luciferase based assay
[6] = Inhibition of MCP-1 secretion in mouse Trex1-knockout bone marrow-derived macrophages incubated for 24 hrs by celltiter-glo assay; format: functional, cell-based; conditions: BMDM
[7] = Inhibition of RANTES secretion in mouse Trex1-knockout bone marrow-derived macrophages incubated for 24 hrs by celltiter-glo assay; format: functional, cell-based; conditions: BMDM
Toll-like receptor 9 [8] = molecular target: T2, Toll-like receptor 9 (Homo sapiens, UniProt Q9NR96); assay: Antagonist activity at TLR9 (unknown origin)
T2 sequence (Q9NR96 whole entry): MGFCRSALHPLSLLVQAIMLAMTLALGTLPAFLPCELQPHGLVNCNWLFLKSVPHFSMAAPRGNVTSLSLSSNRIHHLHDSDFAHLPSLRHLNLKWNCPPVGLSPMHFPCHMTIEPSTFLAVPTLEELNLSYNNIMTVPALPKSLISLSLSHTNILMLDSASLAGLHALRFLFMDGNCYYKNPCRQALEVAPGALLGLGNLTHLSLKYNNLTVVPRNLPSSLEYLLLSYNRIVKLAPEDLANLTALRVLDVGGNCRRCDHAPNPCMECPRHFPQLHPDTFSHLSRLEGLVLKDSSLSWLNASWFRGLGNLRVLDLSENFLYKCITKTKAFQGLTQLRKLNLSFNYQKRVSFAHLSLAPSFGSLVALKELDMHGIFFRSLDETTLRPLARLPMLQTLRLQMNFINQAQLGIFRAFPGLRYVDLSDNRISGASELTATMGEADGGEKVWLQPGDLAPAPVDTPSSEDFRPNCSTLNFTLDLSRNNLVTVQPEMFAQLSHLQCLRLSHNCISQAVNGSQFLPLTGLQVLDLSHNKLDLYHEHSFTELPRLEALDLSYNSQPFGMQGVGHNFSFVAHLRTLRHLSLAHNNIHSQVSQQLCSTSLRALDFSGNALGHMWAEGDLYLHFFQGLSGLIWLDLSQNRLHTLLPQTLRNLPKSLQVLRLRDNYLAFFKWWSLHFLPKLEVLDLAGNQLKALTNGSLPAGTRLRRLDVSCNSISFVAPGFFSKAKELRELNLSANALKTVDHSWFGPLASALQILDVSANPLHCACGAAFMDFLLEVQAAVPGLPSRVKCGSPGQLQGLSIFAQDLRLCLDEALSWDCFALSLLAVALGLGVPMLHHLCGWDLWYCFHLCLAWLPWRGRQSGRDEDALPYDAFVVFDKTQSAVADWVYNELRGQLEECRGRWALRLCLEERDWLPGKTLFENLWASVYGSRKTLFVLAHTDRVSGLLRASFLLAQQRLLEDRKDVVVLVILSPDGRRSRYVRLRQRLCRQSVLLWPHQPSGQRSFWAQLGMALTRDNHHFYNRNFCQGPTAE

THP-1 [9] = assay: Cytotoxicity against human THP-1 cells assessed as cell growth inhibition; format: functional, cell-based
Toll-like receptor 7 [10] = molecular target: T3, Toll-like receptor 7 (Homo sapiens, UniProt Q9NYK1); assay: Antagonist activity at R848 stimulated TRL7 in HEK-Blue hTLR7 cells assessed as inhibition of NF kappa B/Ap-1 activation measured after 20 hrs by SEAP reporter assay; format: cell-based
T3 sequence (Q9NYK1 whole entry): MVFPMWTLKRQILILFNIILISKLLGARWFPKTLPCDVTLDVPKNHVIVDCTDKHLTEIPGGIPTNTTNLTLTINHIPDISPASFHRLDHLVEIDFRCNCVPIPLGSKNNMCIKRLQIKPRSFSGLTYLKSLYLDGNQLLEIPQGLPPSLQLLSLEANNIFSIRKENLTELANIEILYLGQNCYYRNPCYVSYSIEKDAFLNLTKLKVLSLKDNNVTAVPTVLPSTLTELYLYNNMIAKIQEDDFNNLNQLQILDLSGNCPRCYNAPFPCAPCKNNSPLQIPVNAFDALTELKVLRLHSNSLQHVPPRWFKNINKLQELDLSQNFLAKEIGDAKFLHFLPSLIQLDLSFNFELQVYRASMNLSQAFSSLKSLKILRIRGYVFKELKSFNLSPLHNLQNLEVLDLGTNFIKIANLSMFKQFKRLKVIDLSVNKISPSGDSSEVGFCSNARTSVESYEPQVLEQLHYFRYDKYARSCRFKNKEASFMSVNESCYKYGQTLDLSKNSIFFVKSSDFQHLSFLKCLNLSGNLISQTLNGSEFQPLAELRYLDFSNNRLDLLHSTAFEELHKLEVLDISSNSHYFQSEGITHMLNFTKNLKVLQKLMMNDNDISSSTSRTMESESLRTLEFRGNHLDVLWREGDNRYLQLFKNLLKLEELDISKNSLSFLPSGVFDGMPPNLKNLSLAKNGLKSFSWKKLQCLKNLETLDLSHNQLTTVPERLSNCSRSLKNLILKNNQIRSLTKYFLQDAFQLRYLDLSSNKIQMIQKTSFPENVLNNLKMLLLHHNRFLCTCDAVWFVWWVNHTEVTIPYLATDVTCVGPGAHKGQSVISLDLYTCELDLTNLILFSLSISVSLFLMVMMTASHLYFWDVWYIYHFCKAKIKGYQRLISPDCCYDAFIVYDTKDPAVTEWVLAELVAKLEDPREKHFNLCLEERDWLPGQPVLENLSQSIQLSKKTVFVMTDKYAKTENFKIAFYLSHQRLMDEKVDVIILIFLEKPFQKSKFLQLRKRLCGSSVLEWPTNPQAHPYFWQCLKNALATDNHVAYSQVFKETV

Toll-like receptor 8 [11] = molecular target: T4, Toll-like receptor 8 (Homo sapiens, UniProt Q9NR97); assay: Antagonist activity at R848 stimulated TRL8 in HEK-Blue hTLR8 cells assessed as inhibition of NF kappa B/Ap-1 activation measured after 20 hrs by SEAP reporter assay; format: cell-based
T4 sequence (Q9NR97 whole entry): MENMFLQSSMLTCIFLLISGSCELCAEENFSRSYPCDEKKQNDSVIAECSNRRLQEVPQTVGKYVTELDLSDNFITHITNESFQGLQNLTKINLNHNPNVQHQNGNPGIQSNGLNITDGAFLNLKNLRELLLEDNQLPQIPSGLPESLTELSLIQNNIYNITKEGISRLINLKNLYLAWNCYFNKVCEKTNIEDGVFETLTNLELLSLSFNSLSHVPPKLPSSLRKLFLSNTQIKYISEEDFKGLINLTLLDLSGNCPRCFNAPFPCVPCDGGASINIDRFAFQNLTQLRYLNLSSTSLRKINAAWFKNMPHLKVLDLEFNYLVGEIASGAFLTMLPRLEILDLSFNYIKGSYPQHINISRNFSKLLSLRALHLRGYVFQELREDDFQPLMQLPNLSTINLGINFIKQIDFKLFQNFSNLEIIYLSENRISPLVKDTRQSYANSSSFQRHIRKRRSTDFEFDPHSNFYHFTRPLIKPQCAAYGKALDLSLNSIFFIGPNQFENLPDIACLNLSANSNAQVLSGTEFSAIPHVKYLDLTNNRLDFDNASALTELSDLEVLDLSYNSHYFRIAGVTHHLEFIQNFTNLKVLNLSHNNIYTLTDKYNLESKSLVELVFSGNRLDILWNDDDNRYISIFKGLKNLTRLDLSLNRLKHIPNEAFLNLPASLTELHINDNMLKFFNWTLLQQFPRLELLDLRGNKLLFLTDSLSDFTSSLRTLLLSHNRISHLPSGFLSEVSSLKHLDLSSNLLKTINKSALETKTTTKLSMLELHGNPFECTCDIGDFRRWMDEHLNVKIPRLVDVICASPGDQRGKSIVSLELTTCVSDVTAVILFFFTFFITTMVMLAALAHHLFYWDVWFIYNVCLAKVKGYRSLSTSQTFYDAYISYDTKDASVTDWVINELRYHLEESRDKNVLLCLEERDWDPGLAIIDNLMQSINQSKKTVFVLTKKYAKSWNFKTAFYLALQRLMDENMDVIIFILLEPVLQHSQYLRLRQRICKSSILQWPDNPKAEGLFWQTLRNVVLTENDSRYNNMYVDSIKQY

Toll-like receptor 9 [12] = molecular target: T2, Toll-like receptor 9; assay: Antagonist activity at R848 stimulated TRL9 in HEK-Blue hTLR9 cells assessed as inhibition of NF kappa B/Ap-1 activation measured after 20 hrs by SEAP reporter assay; format: cell-based
Cyclic GMP-AMP synthase [13] = molecular target: T1, Cyclic GMP-AMP synthase; assay: Inhibition of cGAS expressed in human THP-1 cells assessed as reduction of IFN-beta expression by ELISA assay; format: cell-based
RAW264.7 = assay: Cytotoxicity against mouse RAW264.7 cells assessed as cell growth inhibition measured after 24 hrs by Celltiter-Glo assay; format: functional, cell-based; conditions: RAW264.7, 24 h
Toll-like receptor 8 [14] = molecular target: T4, Toll-like receptor 8; assay: Antagonist activity at R848 stimulated TRL8 overexpressed in HEK293 cells measured after 20 to 24 hrs by SEAP reporter assay; format: cell-based
[15] = molecular target: NACHT, LRR and PYD domains-containing protein 3 (Mus musculus, UniProt Q8R4B8); assay: Inhibition of NLRP3 inflammasome activation in LPS-primed C57BL/6 mouse bone marrow derived macrophages incubated for 30 mins in presence of ATP by immunoblotting analysis; format: cell-based, Macrophage
Cyclic GMP-AMP synthase [16] = molecular target: T1, Cyclic GMP-AMP synthase; assay: Inhibition of full-length human cGAS by fluorescence polarization
Toll-like receptor 7 [17] = molecular target: T3, Toll-like receptor 7; assay: Antagonist activity at TLR7 in human PBMC incubated for 3 hrs by TR-FRET assay; format: cell-based
THP-1 [18] = assay: Cytotoxicity against human THP-1 cells assessed as cell growth inhibition measured after 24 hrs by Annexin-V staining based flow cytometry analysis; format: functional; conditions: THP-1, 24 h

T1 sequence (Q8N884 whole entry, the tested form may be a part): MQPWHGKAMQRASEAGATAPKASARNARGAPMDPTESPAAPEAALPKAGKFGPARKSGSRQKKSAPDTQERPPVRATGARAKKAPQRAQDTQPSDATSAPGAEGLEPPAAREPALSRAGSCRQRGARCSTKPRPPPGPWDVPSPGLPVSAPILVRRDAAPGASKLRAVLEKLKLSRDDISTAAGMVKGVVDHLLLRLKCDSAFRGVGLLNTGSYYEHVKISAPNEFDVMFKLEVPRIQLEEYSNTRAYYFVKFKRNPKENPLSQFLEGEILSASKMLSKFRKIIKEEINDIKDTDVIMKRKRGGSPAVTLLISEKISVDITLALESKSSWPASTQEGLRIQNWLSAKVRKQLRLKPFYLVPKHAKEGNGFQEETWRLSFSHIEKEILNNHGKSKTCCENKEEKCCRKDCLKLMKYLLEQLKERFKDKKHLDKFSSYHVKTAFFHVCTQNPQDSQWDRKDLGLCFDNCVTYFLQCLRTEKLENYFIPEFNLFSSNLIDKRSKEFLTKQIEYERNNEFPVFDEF
Sequence of NACHT, LRR and PYD domains-containing protein 3 (Q8R4B8 whole entry, the tested form may be a part): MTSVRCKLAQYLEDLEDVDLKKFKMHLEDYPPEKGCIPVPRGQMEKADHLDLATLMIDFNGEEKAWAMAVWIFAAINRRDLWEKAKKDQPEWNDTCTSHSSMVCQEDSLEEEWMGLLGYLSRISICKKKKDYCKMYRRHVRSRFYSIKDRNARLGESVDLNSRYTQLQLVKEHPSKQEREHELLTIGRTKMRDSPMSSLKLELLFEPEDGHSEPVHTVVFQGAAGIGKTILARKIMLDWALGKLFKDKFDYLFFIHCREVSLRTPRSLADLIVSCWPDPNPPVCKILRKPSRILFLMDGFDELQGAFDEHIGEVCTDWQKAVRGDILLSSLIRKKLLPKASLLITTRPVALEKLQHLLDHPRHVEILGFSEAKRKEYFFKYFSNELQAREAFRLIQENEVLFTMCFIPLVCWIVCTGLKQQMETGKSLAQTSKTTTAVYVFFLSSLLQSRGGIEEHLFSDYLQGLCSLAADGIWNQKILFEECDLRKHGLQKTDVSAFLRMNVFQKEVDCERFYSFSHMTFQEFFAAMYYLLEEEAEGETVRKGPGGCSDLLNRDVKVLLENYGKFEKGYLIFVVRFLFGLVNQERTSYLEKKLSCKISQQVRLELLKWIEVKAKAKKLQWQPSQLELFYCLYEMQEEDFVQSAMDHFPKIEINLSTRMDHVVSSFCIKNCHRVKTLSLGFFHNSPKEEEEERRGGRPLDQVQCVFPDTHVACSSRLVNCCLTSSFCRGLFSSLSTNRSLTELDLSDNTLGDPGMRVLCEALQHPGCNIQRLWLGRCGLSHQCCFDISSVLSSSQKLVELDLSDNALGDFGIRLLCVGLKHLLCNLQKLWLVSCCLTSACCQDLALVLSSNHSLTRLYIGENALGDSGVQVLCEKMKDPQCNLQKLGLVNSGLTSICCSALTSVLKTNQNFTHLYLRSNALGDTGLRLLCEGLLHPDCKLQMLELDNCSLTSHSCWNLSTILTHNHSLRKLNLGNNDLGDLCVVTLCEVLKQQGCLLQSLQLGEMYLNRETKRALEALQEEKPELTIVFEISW
Sequence of Stimulator of interferon genes protein (Q86WV6 whole entry, the tested form may be a part): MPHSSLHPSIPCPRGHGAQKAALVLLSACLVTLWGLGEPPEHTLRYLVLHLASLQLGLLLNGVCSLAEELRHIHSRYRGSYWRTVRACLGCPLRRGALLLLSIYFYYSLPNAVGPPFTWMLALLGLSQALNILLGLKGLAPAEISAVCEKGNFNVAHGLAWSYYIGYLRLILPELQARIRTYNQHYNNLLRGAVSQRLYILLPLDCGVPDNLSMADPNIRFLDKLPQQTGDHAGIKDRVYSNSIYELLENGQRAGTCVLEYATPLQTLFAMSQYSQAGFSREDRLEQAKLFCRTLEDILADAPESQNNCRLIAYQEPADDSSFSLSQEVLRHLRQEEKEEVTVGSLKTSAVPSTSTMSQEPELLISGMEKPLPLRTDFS

CCCCc1ccc(NC(=O)Nc2c[nH]c3ncc(F)cc23)cc1
IC50 [1]: 40 nM

CCCCc1ccc(S(N)(=O)=Nc2c[nH]c3ccccc23)cc1 (stereo not drawn)
IC50 [1]: 40 nM

O=C(O)c1cccc(NC(=O)c2n[nH]c(-n3cnnc3)n2)c1
IC50 (Cyclic GMP-AMP synthase [2]): 13100 nM

O=C(Nc1c[nH]c2cc(F)c(F)cc12)c1ncn(Cc2ccc(C(F)(F)F)cc2)n1
IC50 [1]: 40 nM

CC[C@@H]1CC(=O)[C@@H]2[C@H](Cl)[C@H](Cl)CN2C(=O)[C@H](CC)NC(=O)C[C@H](c2ccccc2)NC(=O)[C@H](CO)NC1=O
IC50 (IMR-90): 10800 nM
Kd [3]: 53 nM

O=C(O)c1n[nH]c(-n2cnnc2)n1
IC50 (Cyclic GMP-AMP synthase [2]): 29900 nM

O=C(Nc1cc(-c2ccccc2)ccn1)c1[nH]ncc1[N+](=O)[O-]
IC50 (THP-1 [4]): 2630 nM

COc1cccc2oc(-c3c(C#N)[nH]c4c(-c5ccccc5)c(C(F)(F)F)nn4c3=O)nc12
IC50 (Cyclic GMP-AMP synthase [5]): < 20000 nM
IC50 [6]: 6970 nM
IC50 [7]: 1250 nM

CNCc1ccc(C(=O)Nc2nc(N3CCN(C4CCCC4)CC3)c3ncn(CCCN4CCCC4)c3n2)cc1
IC50 (Toll-like receptor 9 [8]): 5 nM

COC(=O)[C@H](Cc1ccccc1)Nc1nc(NCc2nc3cc(F)ccc3[nH]2)nc(Nc2cccc(CN3CCN(C(=O)c4nccnc4O)CC3)c2)n1
IC50 (THP-1 [9]): 20000 nM

Cc1cc(N2CCOC3(CN(C[C@H]4CN(c5ccc(C#N)c6ncccc56)C[C@@H](C)O4)C3)C2)cc(C)n1
IC50 (Toll-like receptor 7 [10]): < 3 nM
IC50 (Toll-like receptor 8 [11]): < 3 nM
IC50 (Toll-like receptor 9 [12]): < 32 nM

Cc1nc(N2C[C@@H](CC(=O)Nc3ccncc3)C[C@H]2C(=O)O)c2oc3ccccc3c2n1
IC50 (Cyclic GMP-AMP synthase [13]): 13000 nM

Nc1ccc(-c2cc(Cl)c(Cl)c3[nH]c4c(c23)CN(C(=O)CO)CC4)cn1
IC50 (RAW264.7): < 1000 nM

COC12CNCC1CN(c1ccc3c(c1)CN1[C@H](C)CN(c4ccc(C#N)c5ncccc45)C[C@H]31)C2 (stereo partly drawn)
IC50 (Toll-like receptor 7 [10]): < 3 nM
IC50 (Toll-like receptor 8 [11]): < 3 nM
IC50 (Toll-like receptor 9 [12]): < 32 nM

Cc1cccc(-c2ccnc3c(C(N)=O)cnn23)c1
IC50 (Toll-like receptor 8 [14]): 67 nM

COc1ccc(/C=C/C(=O)Nc2ccccc2C(=O)O)cc1OC
IC50 [15]: 25000 nM

Cc1[nH]n2c(-c3ccccc3)c(C#N)nc2c(=O)c1-c1cccc(Cl)c1
IC50 (Cyclic GMP-AMP synthase [16]): < 1000 nM
IC50 (THP-1 [9]): < 10000 nM

CCN(C)CC(=O)NC12CCC(Cn3nc(C)c4c3CCN(c3cc(C)nc5c3cnn5C)C4)(CC1)CC2
IC50 (Toll-like receptor 7 [17]): < 0.5 nM

CCCCc1ccc(Nc2c(Nc3c[nH]c4ccccc34)c(=O)c2=O)cc1
IC50 [1]: 200 nM

COc1ccc2nc3cc(N)ccc3c(N(C)CCCN(C)c3ccncc3)c2c1
IC50 (THP-1 [18]): 14000 nM
